# Data reported in patent US7956069B2, “Compounds” (AstraZeneca AB, priority 2006, dated 2011).
# Biological target: T1, cloned human M2 receptor (Homo sapiens, UniProt P08172)
# T1 construct: purchased Perkin-Elmer RBHM2M; host or cells: Chinese hamster ovary cells (CHO)
# T1 sequence (P08172 1-466): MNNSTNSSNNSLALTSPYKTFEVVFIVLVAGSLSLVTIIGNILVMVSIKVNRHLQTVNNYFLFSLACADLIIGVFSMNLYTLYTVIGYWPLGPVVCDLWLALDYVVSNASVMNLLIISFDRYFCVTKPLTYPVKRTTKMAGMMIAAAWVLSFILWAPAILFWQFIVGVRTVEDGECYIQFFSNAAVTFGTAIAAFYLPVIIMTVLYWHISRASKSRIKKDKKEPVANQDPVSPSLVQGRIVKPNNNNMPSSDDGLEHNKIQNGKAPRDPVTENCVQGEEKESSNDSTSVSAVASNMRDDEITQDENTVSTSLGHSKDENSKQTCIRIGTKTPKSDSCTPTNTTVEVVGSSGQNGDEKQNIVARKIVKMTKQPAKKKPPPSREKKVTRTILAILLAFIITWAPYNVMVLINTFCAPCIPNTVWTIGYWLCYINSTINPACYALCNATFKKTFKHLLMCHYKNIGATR
# Test: hM2 receptor GTPγS binding
# Assay type: biochemical
# Conditions: CHO membranes, [35S]GTPγS binding
# Protocol: hM2 Receptor GTPγS Binding
# Membranes produced from Chinese hamster ovary cells (CHO) expressing the cloned human M2 receptor (human Muscarinic receptor subtype 2, gene bank access NM_000739), were obtained from Perkin-Elmer (RBHM2M). The membranes were thawed at 37° C., passed 3 times through a 23-gauge blunt-end needle, diluted in the GTPγS binding buffer (50 mM Hepes, 20 mM NaOH, 100 mM NaCl, 1 mM EDTA, 5 mM MgCl2, pH 7.4, 100 μM DTT). The EC50, IC50 and Emax of the compounds of the invention were evaluated from 10-point dose-response curves (three fold concentration range) done in 60 μl in 384-well non-specific binding surface plate (Corning). Ten microliters from the dose-response curves plate (5× concentration) were transferred to another 384 well plate containing the following: 10 μg of hM2 membranes, 500 μg of Flashblue beads (Perkin-Elmer) and GDP in a 25 μl volume. An additional 15 μl containing 3.3× (55000 dpm) of GTPγ^35S (0.4 nM final) were added to the wells resulting in a total well volume of 50 μl. Basal and maximal stimulated [^35S]GTPγS binding were determined in absence and presence of 30 μM of acetylcholine agonist. The membranes/beads mix were pre-incubated for 15 minutes at room temperature with 25 μM GDP prior to distribution in plates (12.5 μM final). The reversal of acetylcholine-induced stimulation (2 μM final) of [^35S]GTPγS binding was used to assay the antagonist properties (IC50) of the compounds. The plates were incubated for 60 minutes at room temperature with shaking, then centrifuged at 2000 rpm for 5 minutes. The radioactivity (cpm) were counted in a Trilux (Perkin-Elmer).
# Values of EC50, IC50 and Emax were obtained using sigmoidal fits of a non-linear curve-fitting program (XLfit version 5.0.6 from ID Business Solutions Limited, Guildford, UK) of percent stimulated [^35S]GTPγS binding vs. log(molar ligand).
# All EC50 and IC50 values are reported as arithmetic means ± standard error of mean of ‘n’ independent experiments. […] The IC50 was the concentration of the compound of the invention at which 50% inhibition of acetylcholine [^35S]GTPγS binding stimulation has been observed.
row,SMILES,EC50
1,CCOC(=O)N1CCC(N2CCC(N3C(=O)N[C@H]4CCCC[C@@H]43)CC2)CC1,120 nM
2,CCOC(=O)N1CC[C@H](N2CCC(N3C(=O)N[C@H]4CCCC[C@@H]43)CC2)C1,7300 nM
3,CC(C)OC(=O)N1CCC(N2CCC(N3C(=O)N[C@@H]4CCCC[C@@H]43)CC2)CC1,2500 nM
4,O=C(C1CC1)N1CCC(N2CCC(N3C(=O)N[C@@H]4CCCC[C@H]43)CC2)CC1,> 30000 nM
5,O=C1CCCN1CCC(=O)N1CCC(N2CCC(N3C(=O)N[C@@H]4CCCC[C@H]43)CC2)CC1,1000 nM
6,O=C(C1CCCC1)N1CCC(N2CCC(N3C(=O)N[C@H]4CCCC[C@@H]43)CC2)CC1,2600 nM
7,CN1C(=O)N(C2CCN(C3CCN(C(=O)C4CC4)CC3)CC2)[C@H]2CCCC[C@@H]21,> 30000 nM
8,CC(C)OC(=O)N1CCC(N2CCC(N3C(=O)C[C@H]4CCCC[C@@H]43)CC2)CC1,1200 nM

# Now from value to molecule:
row,EC50,SMILES
1,> 30000 nM,COc1ccccc1C(=O)N1CCC(N2CCC(N3C(=O)N[C@@H]4CCCC[C@H]43)CC2)CC1
2,760 nM,CC(C)OC(=O)N1CCC(N2CCC(N3C(=O)N[C@H]4CCCC[C@@H]43)CC2)CC1
3,500 nM,O=C1CCCN1CCC(=O)N1CCC(N2CCC(N3C(=O)N[C@H]4CCCC[C@@H]43)CC2)CC1
4,380 nM,O=C(OCCF)N1CCC(N2CCC(N3C(=O)N[C@H]4CCCC[C@@H]43)CC2)CC1
